# Laboratory results from ChEMBL document CHEMBL6078668, “Synthesis and biological evaluation of lappaconitine analogues as potential anti-neuroinflammatory agents by side chain modification and scaffold hopping strategy” (Bioorg Med Chem, 2025).
# The source made the active and inactive calls. The rule behind the calls is not given here.
# What was measured:
# BV-2 [1] = experiment: Anti-neuroinflammatory activity against LPS-stimulated C57BL/6 mouse BV-2 cells assessed as inhibition of NO release at 20 uM preincubated with compound for 4 hrs followed by LPS addition and measured after 24 hrs by Griess reagent based assay relative to control; format: functional; settings: C57BL/6, BV-2, time 28 hrs
# [2] = Cytotoxicity against C57BL/6 mouse BV-2 cells assessed as survival rate at 20 uM incubated for 24 hrs by MTT assay relative to control; format: toxicity, cell-based; settings: read-out: INH
# BV-2 [3] = experiment: Anti-neuroinflammatory activity against LPS-stimulated C57BL/6 mouse BV-2 cells assessed as decrease in IL-6 expression level preincubated with compound for 4 hrs followed by LPS addition and measured after 24 hrs by ELISA; format: functional, cell-based; settings: dose 30-60 µM, time 28.0 hrs
# BV-2 [4] = experiment: Anti-neuroinflammatory activity against LPS-stimulated C57BL/6 mouse BV-2 cells assessed as decrease in TNF-alpha expression level preincubated with compound for 4 hrs followed by LPS addition and measured after 24 hrs by ELISA; format: functional, cell-based; settings: dose 30-60 µM, time 28.0 hrs
# [5] = Acute toxicity in Kunming mouse assessed as histological abnormalities in heart at 250 mg/kg, po measured after 14 days by H and E staining based analysis; format: organism-based; settings: in vivo, 336 h, time 14 day
# BV-2 [6] = experiment: Downregulation of TLR4 protein expression in C57BL/6 mouse BV-2 cells at 30 to 60 uM preincubated with compound for 4 hrs followed by LPS stimulation by Western blot analysis; format: functional, cell-based; settings: dose 30-60 µM
# BV-2 [7] = experiment: Anti-neuroinflammatory activity against LPS-stimulated C57BL/6 mouse BV-2 cells assessed as downregulation of COX-2 protein expression level by Western blot analysis; format: functional, cell-based; settings: dose 30-60 µM
# BV-2 [8] = experiment: Anti-neuroinflammatory activity against LPS-stimulated C57BL/6 mouse BV-2 cells assessed as decrease in IL-6 mRNA expression level at 30 to 60 uM preincubated with compound for 4 hrs followed by LPS addition and measured after 24 hrs by RT-PCR analysis; format: functional, cell-based; settings: dose 30-60 µM, time 28.0 hrs
# BV-2 [9] = experiment: Anti-neuroinflammatory activity against LPS-stimulated C57BL/6 mouse BV-2 cells assessed as downregulation of iNOS mRNA expression level at 30 to 60 uM preincubated with compound for 4 hrs followed by LPS addition and measured after 24 hrs by RT-PCR analysis; format: functional, cell-based; settings: dose 30-60 µM, time 28.0 hrs
# [10] = Acute toxicity in Kunming mouse assessed as histological abnormalities in spleen at 250 mg/kg, po measured after 14 days by H and E staining based analysis; format: organism-based; settings: in vivo, 336 h, time 14 day
# [11] = Acute toxicity in Kunming mouse assessed as histological abnormalities in lung at 250 mg/kg, po measured after 14 days by H and E staining based analysis; format: organism-based; settings: in vivo, 336 h, time 14 day
# BV-2 [12] = experiment: Anti-neuroinflammatory activity against LPS-stimulated C57BL/6 mouse BV-2 cells assessed as inhibition of NO release at 30 uM preincubated with compound for 4 hrs followed by LPS addition and measured after 24 hrs by Griess reagent based assay relative to control; format: functional; settings: C57BL/6, BV-2, time 28 hrs
# [13] = Acute toxicity in po dosed Kunming mouse assessed as lethal dose measured after 14 days; format: organism-based; settings: in vivo, time 14 day
# BV-2 [14] = experiment: Anti-neuroinflammatory activity against LPS-stimulated C57BL/6 mouse BV-2 cells assessed as downregulation of iNOS protein expression level by Western blot analysis; format: functional, cell-based; settings: dose 30-60 µM
# BV-2 [15] = experiment: Cytotoxicity against C57BL/6 mouse BV-2 cells assessed as effect on cell viability at 30 to 60 uM incubated for 24 hrs by MTT assay; format: toxicity, cell-based; settings: bv-2, 24 h, dose 30-60 µM
# BV-2 [16] = experiment: Anti-neuroinflammatory activity against LPS-stimulated C57BL/6 mouse BV-2 cells assessed as decrease in TNF-alpha mRNA expression level at 30 to 60 uM preincubated with compound for 4 hrs followed by LPS addition and measured after 24 hrs by RT-PCR analysis; format: functional, cell-based; settings: dose 30-60 µM, time 28.0 hrs
# BV-2 [17] = experiment: Anti-neuroinflammatory activity against LPS-stimulated C57BL/6 mouse BV-2 cells assessed as inhibition of NO release preincubated with compound for 4 hrs followed by LPS addition and measured after 24 hrs by Griess reagent based assay; format: functional, cell-based; settings: C57BL/6, BV-2
# BV-2 [18] = experiment: Inhibition of IkappaB phosphorylation in LPS-stimulated C57BL/6 mouse BV-2 cells at 30 to 60 uM preincubated with compound for 4 hrs followed by LPS stimulation by Western blot analysis; format: cell-based; settings: dose 30-60 µM
# [19] = Acute toxicity in Kunming mouse assessed as histological abnormalities in liver at 250 mg/kg, po measured after 14 days by H and E staining based analysis; format: organism-based; settings: in vivo, 336 h, time 14 day
# [20] = Acute toxicity in Kunming mouse assessed as animal death at 250 mg/kg, po measured after 14 days; format: organism-based; settings: in vivo, 336 h, time 14 day
# BV-2 [21] = experiment: Anti-neuroinflammatory activity against LPS-stimulated C57BL/6 mouse BV-2 cells assessed as downregulation of COX-2 mRNA expression level at 30 to 60 uM preincubated with compound for 4 hrs followed by LPS addition and measured after 24 hrs by RT-PCR analysis; format: functional, cell-based; settings: dose 30-60 µM, time 28.0 hrs
# BV-2 [22] = experiment: Downregulation of MyD88 protein expression in C57BL/6 mouse BV-2 cells at 30 to 60 uM preincubated with compound for 4 hrs followed by LPS stimulation by Western blot analysis; format: functional, cell-based; settings: dose 30-60 µM
# BV-2 [23] = experiment: Anti-neuroinflammatory activity against LPS-stimulated C57BL/6 mouse BV-2 cells assessed as decrease in IL-1beta expression level preincubated with compound for 4 hrs followed by LPS addition and measured after 24 hrs by ELISA; format: functional, cell-based; settings: dose 30-60 µM, time 28.0 hrs
# BV-2 [24] = experiment: Anti-neuroinflammatory activity against LPS-stimulated C57BL/6 mouse BV-2 cells assessed as inhibition of NO release at 30 to 60 uM preincubated with compound for 4 hrs followed by LPS addition and measured after 24 hrs by Griess reagent based assay; format: functional, cell-based; settings: dose 30-60 µM, time 28.0 hrs
# [25] = Cytotoxicity against C57BL/6 mouse BV-2 cells assessed as survival rate at 30 uM incubated for 24 hrs by MTT assay relative to control; format: toxicity, cell-based; settings: read-out: Survival
# BV-2 [26] = experiment: Anti-neuroinflammatory activity against LPS-stimulated C57BL/6 mouse BV-2 cells assessed as decrease in IL-1beta mRNA expression level at 30 to 60 uM preincubated with compound for 4 hrs followed by LPS addition and measured after 24 hrs by RT-PCR analysis; format: functional, cell-based; settings: dose 30-60 µM, time 28.0 hrs
# [27] = Acute toxicity in Kunming mouse assessed as animal death at 325 to 928 mg/kg, po measured after 14 days; format: organism-based; settings: in vivo, 336 h, dose 325-928 mg/kg, time 14 day
# BV-2 [28] = experiment: Inhibition of NFkappaB p65 nuclear translocation in LPS-stimulated C57BL/6 mouse BV-2 cells at 30 to 60 uM preincubated with compound for 4 hrs followed by LPS stimulation by Western blot analysis; format: cell-based; settings: dose 30-60 µM
# [29] = Acute toxicity in Kunming mouse assessed as histological abnormalities in kidney at 250 mg/kg, po measured after 14 days by H and E staining based analysis; format: organism-based; settings: in vivo, 336 h, time 14 day
compound,measurement,setting,value
CCN1C[C@]2(COC(=O)c3ccccc3NC(=O)c3ccc(Cl)s3)CC[C@H](OC)[C@]34C1[C@@H](C[C@H]23)[C@@]1(O)C[C@H](OC)[C@H]2C[C@@H]4[C@]1(O)[C@H]2O,inhibition at 20 µM,BV-2 [1],45.3%
same,"viability at 24 h, 20 µM",[2],104%
CCN1C[C@]2(COC)CC[C@H](OC)[C@]34C1[C@@H](C[C@H]23)[C@@]1(O)C[C@H](OC)[C@H]2C[C@@H]4[C@]1(O)[C@H]2OC(=O)c1ccccc1NS(=O)(=O)c1ccc(Br)s1,inhibition at 20 µM,BV-2 [1],32.8%
same,"viability at 24 h, 20 µM",[2],110%
CCN1C[C@]2(COC)CC[C@H](OC)[C@]34C1[C@@H](C[C@H]23)[C@@]1(O)C[C@H](OC)[C@H]2C[C@@H]4[C@]1(O)[C@H]2OC(=O)c1ccccc1NS(=O)(=O)c1cccc(F)c1,inhibition at 20 µM,BV-2 [1],18.5%
same,"viability at 24 h, 20 µM",[2],100%
CCN1C[C@]2(OC(=O)c3ccccc3NC(=O)S(=O)(=O)c3cccc(F)c3)CC[C@H](OC)[C@]34C1[C@@H](C[C@H]23)[C@@]1(O)C[C@H](OC)[C@H]2C[C@@H]4[C@]1(O)[C@H]2OC,Activity,BV-2 [3],Dose-dependent-effect
same,Activity,BV-2 [4],Dose-dependent-effect
same,Activity,[5],Non-toxic
same,Activity,BV-2 [6],Active
same,Activity,BV-2 [7],Dose-dependent-effect
same,Activity,BV-2 [8],Active
same,Activity,BV-2 [9],Active
same,Activity,[10],Non-toxic
same,Activity,[11],Non-toxic
same,inhibition at 30 µM,BV-2 [12],85.8%
same,LD50 at 336 h,[13],508 mg/kg
same,Activity,BV-2 [14],Dose-dependent-effect
same,Activity,BV-2 [15],Non-toxic
same,Activity,BV-2 [16],Active
same,IC50,BV-2 [17],9.98 µM
same,inhibition,BV-2 [18],Active
same,Activity,[19],Non-toxic
same,Activity,[20],Non-toxic
same,Activity,BV-2 [21],Active
same,Activity,BV-2 [22],Active
same,Activity,BV-2 [23],Dose-dependent-effect
same,Activity,BV-2 [24],Active
same,"viability at 24 h, 30 µM",[25],107%
same,Activity,BV-2 [26],Active
same,Activity,[27],Toxic
same,inhibition,BV-2 [28],Active
same,Activity,[29],Non-toxic
CCc1ccc(C(=O)Nc2ccccc2C(=O)OC[C@@]23CC[C@H](OC)[C@]45C([C@@H](C[C@H]24)[C@@]2(O)C[C@H](OC)[C@H]4C[C@@H]5[C@]2(O)[C@H]4OC)N(CC)C3)cc1,inhibition at 20 µM,BV-2 [1],21.7%
same,"viability at 24 h, 20 µM",[2],102%
